≈ marks a conversion by molar mass, not a printed value.
Legend:
[1] = Inhibitory activity towards microtubule disassembly relative to paclitaxel evaluated as ID50 compound/ID50 paclitaxel; format: functional
P388 = experiment: Cytotoxicity against P388 leukemia cells was calculated; format: functional, cell-based; details: Mus musculus

Row | SMILES | ID50 ratio [1] | IC50 (P388)
1 | CC(=O)O[C@@]12CO[C@@H]1C[C@H](O)[C@@]1(C)C(=O)[C@H](O)C3=C(C)[C@@H](OC(=O)[C@H](O)[C@@H](NC(=O)OC(C)(C)C)c4ccccc4)C[C@@](O)([C@@H](OC(=O)c4ccccc4)[C@H]21)C3(C)C | 0.6 | –
2 | CC(=O)O[C@@]12CO[C@@H]1C[C@H](O)[C@@]1(CO)C(=O)[C@H](O)C3=C(C)[C@@H](OC(=O)[C@H](O)[C@@H](NC(=O)OC(C)(C)C)c4ccccc4)C[C@@](O)([C@@H](OC(=O)c4ccccc4)[C@H]21)C3(C)C | 0.4 | 0.07 µg/mL (≈ 0.085 µM)

Source: ChEMBL document CHEMBL1127767, “Synthesis of 19-hydroxy docetaxel from a novel baccatin” (Bioorg Med Chem Lett, 1994)
